Measured values reported in publication PMC10969960, “Novel Anthraquinone-Based Benzenesulfonamide Derivatives and Their Analogues as Potent Human Carbonic Anhydrase Inhibitors with Antitumor Activity: Synthesis, Biological Evaluation, and In Silico Analysis” (International Journal of Molecular Sciences, 2024).
Where two headings read alike, the source gives them in different places.

Assays:
[1] = biological target: T1, hCA II (Homo sapiens, UniProt P00918); experiment: CA inhibition assay, 4-nitrophenyl acetate (4-NPA) esterase assay; type: biochemical; settings: errors ±5–10% of the reported values
T1 construct: purchased Shanghai Jining Biological
Description: (§5) The inhibitory activity was evaluated by monitoring the hydrolysis of 4-nitrophenylacetate (4-NPA.).
(§6) Therefore, according to the method described by Verpoorte previously [32], 4-NPA was catalyzed into 4-nitrophenol for the determination of CA activity.
(§7) The substrate (4-NPA) was dissolved in DMSO at a substrate concentration of 1 mM. Standard hCAs II and IX (acquired from Shanghai Jining Biological) were diluted to the indicated concentrations with assay buffer and added to the cells. Different concentrations of inhibitors were added to the cells, followed by incubation at room temperature for 15 min to form complexes of inhibitors and enzymes (E-I). Then, 100 μL of E-I complex and 900 μL of substrate were successively added to a 1 mL glass cuvette and mixed immediately. […] At the same time, the non-enzymatic hydrolysis rate was determined by a blank control test. Standard hCAs II and IX were diluted to final concentrations of 1.5 ng/μL and 5 ng/μL, respectively [26, 35]. The FORECAST (x, known-y’s, known-x’s) command of Excel was used to return a predicted value through the linear regression equation to calculate the IC50 values. The experiments were repeated three times for each inhibitor concentration.

[2] = biological target: T2, hCA IX (Homo sapiens, UniProt Q16790); experiment: as above; type: biochemical; settings: errors ±5–10% of the reported values
T2 construct: purchased Shanghai Jining Biological
Description: as §5, §6, §7

[3] = tested on: MDA-MB-231 cancer cells; experiment: MTT anti-proliferative assay; type: cell-based; settings: Homo sapiens, 24 h
Description: (§8) The median growth-inhibitory concentration (IC50) in the treated cells was compared to that of untreated controls. Cells were cultured under normoxic and hypoxic conditions to evaluate the effects of the compounds on cancer cell viability.
(§9) The cell cultures were passaged once every 2–3 days.
(§10) The 3-(4,5-dimethylthiazol-2-yl)-2,5-diphenyltetrazolium bromide (MTT) assay was used to measure the cell viability. Cells were planted into 96-well plates (4 × 10^3 cells per well) and cultured in media containing different concentrations of compounds. […] The supernatant was then discarded, and 150 μL of DMSO was added to each well, followed by gentle shaking. The absorbance value at 570 nm was measured using an EL808 microplate reader (Bio-TEK Instrument, Winooski, VT, USA).

[4] = tested on: MCF-7 cancer cells; experiment: MTT anti-proliferative assay; type: cell-based; settings: Homo sapiens, MCF7, 24 h
Description: as §8, §9, §10

[5] = tested on: HepG2 cancer cells; experiment: MTT anti-proliferative assay; type: cell-based; settings: Homo sapiens, 24 h
Description: as §8, §9, §10

[6] = tested on: HepG2 cells; experiment: Annexin V-FITC/propidium iodide analysis of apoptosis; type: cell-based; settings: HepG2, 24 h incubation
Description: (§1) Annexin V-FITC/propidium iodide analysis of apoptosis assays were conducted to evaluate the effect of 5c on apoptosis in the MDA-MB-231, MCF-7, and HepG2 cancer cell lines. As shown in Table 3 and Figure 4, a significant increase in the percentage of apoptotic cells (containing early and late apoptosis percentages) and a notable decrease in cell viability were observed after incubation with compound 5c for 24 h.
(§2) Cells were cultured in 6-well plates and treated with the compounds for 24 h. Approximately 1 × 10^5 cells were collected and suspended in binding buffer. Apoptosis was analyzed using an AV/PI apoptosis detection kit (Beyotime Institute of Biotechnology, Shanghai, China) with a flow cytometer (BD Bioscience, Franklin Lakes, NJ, USA).

[7] = tested on: MCF-7 cells; experiment: as above; type: cell-based; settings: MCF-7, 24 h incubation
Description: as §1, §2

[8] = tested on: MDA-MB-231 cells; experiment: as above; type: cell-based; settings: MDA-MB-231, 24 h incubation
Description: as §1, §2

[9] = tested on: HepG2 cell line; experiment: Mitochondrial membrane potential assay (JC-1 staining); type: cell-based; settings: HepG2, 20 μM, 48 h
Description: (§3) The present study investigated the involvement of mitochondria in compound-5-induced apoptosis by JC-1 staining. Red fluorescence indicates JC-1 aggregates, and green fluorescence indicates membrane potential leading to an increase in JC-1 monomers.
(§4) A mitochondrial membrane potential assay kit (Beyotime Co., Nantong, China) was used to measure the mitochondrial membrane potential with a JC-1 fluorescent probe. […] The cells were then fixed with 4% paraformaldehyde and stained with 5 mg/L JC-1 at 37 °C for 1 h. Fluorescent images were acquired using a fluorescence microscope (Olympus IX81, Olympus, Tokyo, Japan).

[10] = tested on: MCF-7 cell line; experiment: as above; type: cell-based; settings: MCF-7, 20 μM, 48 h
Description: as §3, §4

[11] = tested on: MDA-MB-231 cell line; experiment: as above; type: cell-based; settings: MDA-MB-231, 20 μM, 48 h
Description: as §3, §4

[12] = hypoxic (0.5% O2), read-out: IC50 MDA-MB-231 Hypo
[13] = normoxic, read-out: IC50 MDA-MB-231 Normo
[14] = hypoxic (0.5% O2), read-out: IC50 MCF-7 Hypo
[15] = normoxic, read-out: IC50 MCF-7 Normo
[16] = hypoxic (0.5% O2), read-out: IC50 HepG2 Hypo
[17] = normoxic, read-out: IC50 HepG2 Normo

| SMILES | IC50 [1] | IC50 [2] | melting point | other results |
| --- | --- | --- | --- | --- |
| NS(=O)(=O)c1ccc(CCNC(=O)c2ccc3c(c2)C(=O)c2ccccc2C3=O)cc1 [Compound 6h, 9,10-Dioxo-N-(4-Sulfamoylphenethyl)-9,10-Dihydroanthracene-2-Carboxamide] | 61.8 nM | 30.1 nM | – | IC50 [3, 12]: 50400 ± 4270 nM; IC50 [3, 13]: 54200 ± 4870 nM; IC50 [4, 14]: 30300 ± 3140 nM; IC50 [4, 15]: 41400 ± 2220 nM; IC50 [5, 16]: 54300 ± 5150 nM; IC50 [5, 17]: 58200 ± 5450 nM |
| COC(=O)c1cccc(NC(=S)NC(=O)c2ccc3c(c2)C(=O)c2ccccc2C3=O)c1 [Compound 5g, Methyl 3-(3-(9,10-Dioxo-9,10-Dihydroanthracene-2-Carbonyl)Thioureido)Benzoate] | 238 nM | 251 nM | 187 to 187.3 °C | – |
| NS(=O)(=O)c1ccc(NC(=S)NC(=O)c2ccc3c(c2)C(=O)c2ccccc2C3=O)cc1 [Compound 5c, 9,10-Dioxo-N-((4-Sulfamoylphenyl)Carbamothioyl)-9,10-Dihydroanthracene-2-Carboxamide] | 41.6 nM | 40.6 nM | – | IC50 [3, 12]: 46200 ± 3930 nM; IC50 [3, 13]: 48100 ± 3230 nM; IC50 [4, 14]: 28100 ± 1720 nM; IC50 [4, 15]: 34300 ± 2850 nM; IC50 [5, 16]: 69400 ± 5160 nM; IC50 [5, 17]: 61400 ± 5750 nM; Cell Viability (Lower Left %) [6]: 70.12 ± 2.84%; Total Apoptosis (L.R% + U.R%) [6]: 25.06 ± 2.01%; Cell Viability (Lower Left %) [7]: 51.77 ± 2.80%; Total Apoptosis (L.R% + U.R%) [7]: 43.37 ± 3.92%; Cell Viability (Lower Left %) [8]: 68.88 ± 2.30%; Total Apoptosis (L.R% + U.R%) [8]: 27.26 ± 1.76%; mitochondrial membrane potential [9]: reduction in mitochondrial membrane potential; mitochondrial membrane potential [10]: reduction in mitochondrial membrane potential; mitochondrial membrane potential [11]: reduction in mitochondrial membrane potential |
| CC(=O)c1ccc(NC(=S)NC(=O)c2ccc3c(c2)C(=O)c2ccccc2C3=O)cc1 [Compound 5e, ((4-Acetylphenyl)Carbamothioyl)-9,10-Dioxo-9,10-Dihydroanthracene-2-Carboxamide] | 132 nM | 275 nM | 215 to 215.9 °C | – |
| CNS(=O)(=O)c1ccc(NC(=O)c2ccc3c(c2)C(=O)c2ccccc2C3=O)cc1 [Compound 6i, N-(4-(N-Methylsulfamoyl)Phenyl)-9,10-Dioxo-9,10-Dihydroanthracene-2-Carboxamide] | 172 nM | 110 nM | 273 to 273.8 °C | – |
| O=C(O)c1cccc(NC(=O)c2ccc3c(c2)C(=O)c2ccccc2C3=O)c1 [Compound 6b, (9,10-Dioxo-9,10-Dihydroanthracene-2-Carboxamido)Benzoic Acid] | 274 nM | 166 nM | 274 to 274.6 °C | – |
| O=C(O)c1ccc(NC(=O)c2ccc3c(c2)C(=O)c2ccccc2C3=O)cc1 [Compound 6a, 4-(9,10-Dioxo-9,10-Dihydroanthracene-2-Carboxamido)Benzoic Acid] | 296 nM | 194 nM | 338 to 338.5 °C | – |
| CNS(=O)(=O)c1ccc(NC(=S)NC(=O)c2ccc3c(c2)C(=O)c2ccccc2C3=O)cc1 [Compound 5i, ((4-(N-Methylsulfamoyl)Phenyl)Carbamothioyl)-9,10-Anthraquinone-2-Carboxamide] | 76.7 nM | 100 nM | 207 to 207.6 °C | – |
| N=C(N)NS(=O)(=O)c1ccc(NC(=S)NC(=O)c2ccc3c(c2)C(=O)c2ccccc2C3=O)cc1 [Compound 5n, ((4-(N-Carbamimidoylsulfamoyl)Phenyl)Carbamothioyl)-9,10-Dioxo-9,10-Dihydroanthracene-2-Carboxamide] | 98.4 nM | 103 nM | 206 to 206.5 °C | – |
| O=C(O)c1ccc(NC(=S)NC(=O)c2ccc3c(c2)C(=O)c2ccccc2C3=O)cc1 [Compound 5a, (3-(9,10-Dioxo-9,10-Dihydroanthracene-2-Carbonyl) Thioureido) Benzoic Acid] | 113 nM | 217 nM | 221 to 221.4 °C | – |
| CC(=O)NS(=O)(=O)c1ccc(NC(=O)c2ccc3c(c2)C(=O)c2ccccc2C3=O)cc1 [Compound 6k, N-(4-(N-Acetylsulfamoyl)Phenyl)-9,10-Dioxo-9,10-Dihydroanthracene-2-Carboxamide] | 170 nM | 140 nM | 304 to 304.3 °C | – |
| O=C(NC(=S)Nc1ccc(S(=O)(=O)Nc2ncccn2)cc1)c1ccc2c(c1)C(=O)c1ccccc1C2=O [Compound 5j] | 87.7 nM | 77.7 nM | 237 to 237.2 °C | – |
| COC(=O)c1ccc(NC(=S)NC(=O)c2ccc3c(c2)C(=O)c2ccccc2C3=O)cc1 [Compound 5f, Methyl 4-(3-(9,10-Dioxo-9,10-Dihydroanthracene-2-Carbonyl)Thioureido)Benzoate] | 147 nM | 190 nM | 211 to 211.4 °C | – |
| NS(=O)(=O)c1ccc(CCNC(=S)NC(=O)c2ccc3c(c2)C(=O)c2ccccc2C3=O)cc1 [Compound 5h, 9,10-Mioxo-N-((4-Sulfamoylphenethyl)Carbamothioyl)-9,10-Dihydroanthracene-2-Carboxamide] | 21.2 nM | 46.2 nM | 323 to 323.5 °C | IC50 [3, 12]: 81200 ± 7340 nM; IC50 [3, 13]: 75200 ± 6810 nM; IC50 [4, 14]: 57400 ± 5500 nM; IC50 [4, 15]: 63800 ± 5570 nM; IC50 [5, 16]: 80400 ± 7140 nM; IC50 [5, 17]: 81400 ± 7030 nM |
| NS(=O)(=O)c1ccc(NC(=O)c2ccc3c(c2)C(=O)c2ccccc2C3=O)cc1 [Compound 6c, 9,10-Dioxo-N-(4-Sulfamoylphenyl)-9,10-Dihydroanthracene-2-Carboxamide] | 68.3 nM | 34.9 nM | 341 to 341.3 °C | IC50 [3, 12]: 61600 ± 5130 nM; IC50 [3, 13]: 56300 ± 4190 nM; IC50 [4, 14]: 47000 ± 4010 nM; IC50 [4, 15]: 50400 ± 4730 nM; IC50 [5, 16]: 62800 ± 5520 nM; IC50 [5, 17]: 68800 ± 4170 nM |
| CC(=O)c1ccc(NC(=O)c2ccc3c(c2)C(=O)c2ccccc2C3=O)cc1 [Compound 6e, N-(4-Acetylphenyl)-9,10-Dioxo-9,10-Dihydroanthracene-2-Carboxamide] | – | 168 nM | 266 to 266.5 °C | – |
| NS(=O)(=O)c1cccc(NC(=S)NC(=O)c2ccc3c(c2)C(=O)c2ccccc2C3=O)c1 [Compound 5d, 9,10-Dioxo-N-((3-Sulfamoylphenyl)Carbamothioyl)-9,10-Dihydroanthracene-2-Carboxamide] | 64.3 nM | 73.6 nM | 146.5 to 146.8 °C | – |
| NS(=O)(=O)c1cccc(NC(=O)c2ccc3c(c2)C(=O)c2ccccc2C3=O)c1 [Compound 6d, 9,10-Dioxo-N-(3-Sulfamoylphenyl)-9,10-Dihydroanthracene-2-Carboxamide] | 91.2 nM | 55.9 nM | 283 to 283.2 °C | – |
| O=C(NC(=S)Nc1ccc(S(=O)(=O)Nc2nccs2)cc1)c1ccc2c(c1)C(=O)c1ccccc1C2=O [Compound 5m, 9,10-Dioxo-N-((4-(N-(Thiazol-2-yl)Sulfamoyl)Phenyl)Carbamothioyl)-9,10-Dihydroanthracene-2-Carboxamide] | 95.9 nM | 71 nM | – | – |
| O=C(O)c1cccc(NC(=S)NC(=O)c2ccc3c(c2)C(=O)c2ccccc2C3=O)c1 [Compound 5b, 3-(3-(9,10-Dioxo-9,10-Dihydroanthracene-2-Carbonyl) Thioureido) Benzoic Acid] | 135 nM | 254 nM | – | – |
| CC(=O)NS(=O)(=O)c1ccc(NC(=S)NC(=O)c2ccc3c(c2)C(=O)c2ccccc2C3=O)cc1 [Compound 5k, ((4-(N-Acetylsulfamoyl)Phenyl)Carbamothioyl)-9,10-Dioxo-9,10-Dihydroanthracene-2-Carboxamide] | 156 nM | 227 nM | 192 to 192.4 °C | – |
